# Laboratory results: US8283373B2, “Inhibitors of cytosolic phospholipase A2” (Pfizer Inc., priority 2005, dated 2012)
# “Also recorded” adds a separate entry of the source.
# Experiments:
# [1] = system: experimental autoimmune encephalomyelitis (EAE); assay: Experimental autoimmune encephalomyelitis (EAE) model of multiple sclerosis; type: in vivo, mouse
# Protocol: Six groups of B6 mice were immunized with MOG/CFA and injected with pertussis toxin to induce experimental autoimmune encephalomyelitis (EAE), an animal model of Multiple sclerosis. Three groups of mice were treated with vehicle, 4-{3-[1-benzhydryl-5-chloro-2-(2-{[(2,6-dimethylbenzyl)sulfonyl]amino}ethyl)-1H-indol-3-yl]propyl}benzoic acid (Compound A), or 4-{2-[1-benzhydryl-5-chloro-2-(2-{[(3,4-dichlorobenzyl)sulfonyl]amino}-ethyl)-1H-indol-3-yl]ethoxy}benzoic acid (Compound B) from the day of Immunization (orally, 100 mg/kg, twice/day). Another three groups of mice were treated with vehicle, Compound A or Compound B starting on the day of EAE onset (day 15) (orally, 100 mg/kg, twice/day). […] The results are shown in the Table below, wherein mean clinical score is a mean of clinical evaluation of each animal for that particular day.
# Animals are Scored as Follows:
# • 0—no clinical signs of EAE (no paralysis) • 1—paralysis of tail • 2—paralysis of tail and partial hind leg paralysis • 3—paralysis of tail and complete hind leg paralysis • 4—paralysis of tail, complete hind leg paralysis and a partial front leg paralysis • 5—moribund animal (all four limbs paralyzed, lack of responsiveness, these mice were immediately euthanized).
# In addition, the compounds of Examples 14 and 25 were also found to be efficacious in the mouse experimental autoimmune encephalomyelitis (EAE) model of multiple sclerosis. As shown by the data in the Table below, these compounds led to a delayed onset of disease and reduced severity of disease when administered orally in doses as low as 2.5 mg/kg.
# TXB2 = assay: Rat Whole Blood Assay (A23187-stimulated TXB2); type: cell-based; settings: Rattus norvegicus; A23187 5 μM
# Outline: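 Heparinized male Sprague-Dawley rat blood pre-incubated 15 min at 37 °C with compound or DMSO, then stimulated with 5 μM (final) A23187 for 10 min at 37 °C. Stopped with 20 mM EDTA; TXB2 in methanol-extracted plasma measured by ELISA.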
# carrageenan paw edema = assay: Carrageenan paw edema assay; type: in vivo; settings: oral
# Protocol: The carrageenan paw edema assay is an acute model of inflammation that is particularly useful for in vivo assessment of compounds that effect the production of prostaglandins. In particular, NSAIDs inhibit edema in a characteristic dose response fashion in this model, and the activity of NSAIDs in this model correlates well with the activity observed in man (See Mukherjee A, et al., Inflamm Res. 1996; 45:531-540). Therefore, the compound of Example 10 was tested in the carrageenan paw edema model.
# CFA-induced hyperalgesia = CFA-induced hyperalgesia model; type: in vivo, rat; settings: 6 hours after CFA
# Text: The sensitivity of peripheral sensory neurons can be enhanced such that they respond to both noxious and non-noxious stimuli resulting in chronic pain (See Julius, D. et al., Nature. 2001; 413:203; Woolf, C. J., et al., Science. […]; 288:1765). Prostaglandins and leukotrienes at the site of inflammation and tissue damage are partially responsible for this potentiation of the pain response. Prostaglandins promote the phosphorylation of ion channels, increasing the excitability and lowering the pain threshold of sensory neurons. Analogously, leukotriene B4 and related arachidonate metabolites of 12-LO bind to and activate the capsaicin receptor (or VR1) ion channel on neurons that respond to heat and low pH (See Piomelli D., TRENDS in Pharmacological Sciences, January 2001; 22(1):17-29). The effect of the compound of Example 10 was measured in the CFA-induced hyperalgesia model, and lipid mediator production was measured at peripheral and central sites.
# The animals were dosed with vehicle, the compound of Example 10, naproxen or celecoxib, and then CFA was immediately injected into the hind footpad. To assess hyperalgesia, pressure was applied to the left hind paw at a slow and constant rate using a digital force gauge. Measurements were taken at 0 and 6 hours. The application of the force was stopped when the animal vocalized, or struggled. Readings were taken prior to dosing and CFA injection, and repeated six hours after the CFA injection. Two independent experiments were run and the data were analyzed separately.
# The paws were collected at the end of each experiment (6 hours) and the levels of PGE2, LTB4 and TXB2 were measured in the exudates.
smiles,measurement,setting,value
"Cc1cccc(C)c1CS(=O)(=O)NCCc1c(CCCc2ccc(C(=O)O)cc2)c2cc(Cl)ccc2n1C(c1ccccc1)c1ccccc1 [Compound A, 4-{3-[1-benzhydryl-5-chloro-2-(2-{[(2,6-dimethylbenzyl)sulfonyl]amino}ethyl)-1H-indol-3-yl]propyl}benzoic acid]",mean clinical score,"[1]; 100 mg/kg orally twice/day from EAE onset (day 15), day 11 after immunization",0
same,mean clinical score,"[1]; 100 mg/kg orally twice/day from EAE onset (day 15), day 12 after immunization",0
same,mean clinical score,"[1]; 100 mg/kg orally twice/day from EAE onset (day 15), day 13 after immunization",0
same,mean clinical score,"[1]; 100 mg/kg orally twice/day from EAE onset (day 15), day 14 after immunization",0
same,mean clinical score,"[1]; 100 mg/kg orally twice/day from EAE onset (day 15), day 15 after immunization",0.33
same,mean clinical score,"[1]; 100 mg/kg orally twice/day from EAE onset (day 15), day 16 after immunization",0.60
same,mean clinical score,"[1]; 100 mg/kg orally twice/day from EAE onset (day 15), day 17 after immunization",0.80
same,mean clinical score,"[1]; 100 mg/kg orally twice/day from EAE onset (day 15), day 18 after immunization",1.03
same,mean clinical score,"[1]; 100 mg/kg orally twice/day from EAE onset (day 15), day 19 after immunization",1.13
same,mean clinical score,"[1]; 100 mg/kg orally twice/day from EAE onset (day 15), day 20 after immunization",1.50
same,mean clinical score,"[1]; 100 mg/kg orally twice/day from EAE onset (day 15), day 21 after immunization",1.57
same,mean clinical score,"[1]; 100 mg/kg orally twice/day from EAE onset (day 15), day 22 after immunization",1.60
same,mean clinical score,"[1]; 100 mg/kg orally twice/day from EAE onset (day 15), day 23 after immunization",1.37
same,mean clinical score,"[1]; 100 mg/kg orally twice/day from EAE onset (day 15), day 24 after immunization",1.43
same,mean clinical score,"[1]; 100 mg/kg orally twice/day from EAE onset (day 15), day 25 after immunization",1.23
same,mean clinical score,"[1]; 100 mg/kg orally twice/day from EAE onset (day 15), day 26 after immunization",0.87
same,mean clinical score,"[1]; 100 mg/kg orally twice/day from EAE onset (day 15), day 27 after immunization",0.87
same,mean clinical score,"[1]; 100 mg/kg orally twice/day from day of immunization (Day 1), day 11 after immunization",0
same,mean clinical score,"[1]; 100 mg/kg orally twice/day from day of immunization (Day 1), day 12 after immunization",0
same,mean clinical score,"[1]; 100 mg/kg orally twice/day from day of immunization (Day 1), day 13 after immunization",0
same,mean clinical score,"[1]; 100 mg/kg orally twice/day from day of immunization (Day 1), day 14 after immunization",0
same,mean clinical score,"[1]; 100 mg/kg orally twice/day from day of immunization (Day 1), day 15 after immunization",0
same,mean clinical score,"[1]; 100 mg/kg orally twice/day from day of immunization (Day 1), day 16 after immunization",0
same,mean clinical score,"[1]; 100 mg/kg orally twice/day from day of immunization (Day 1), day 17 after immunization",0
same,mean clinical score,"[1]; 100 mg/kg orally twice/day from day of immunization (Day 1), day 18 after immunization",0
same,mean clinical score,"[1]; 100 mg/kg orally twice/day from day of immunization (Day 1), day 19 after immunization",0
same,mean clinical score,"[1]; 100 mg/kg orally twice/day from day of immunization (Day 1), day 20 after immunization",0
same,mean clinical score,"[1]; 100 mg/kg orally twice/day from day of immunization (Day 1), day 21 after immunization",0.06
same,mean clinical score,"[1]; 100 mg/kg orally twice/day from day of immunization (Day 1), day 22 after immunization",0.09
same,mean clinical score,"[1]; 100 mg/kg orally twice/day from day of immunization (Day 1), day 23 after immunization",0.16
same,mean clinical score,"[1]; 100 mg/kg orally twice/day from day of immunization (Day 1), day 24 after immunization",0.19
same,mean clinical score,"[1]; 100 mg/kg orally twice/day from day of immunization (Day 1), day 25 after immunization",0.25
same,mean clinical score,"[1]; 100 mg/kg orally twice/day from day of immunization (Day 1), day 26 after immunization",0.28
same,mean clinical score,"[1]; 100 mg/kg orally twice/day from day of immunization (Day 1), day 27 after immunization",0.38
same,prevention of EAE / reduction of clinical severity,"[1]; administered from the time of immunization, or in mice with or close to EAE",can prevent EAE
"O=C(O)c1ccc(CCCc2c(CCNS(=O)(=O)Cc3ccccc3C(F)(F)F)n(C(c3ccccc3)c3ccccc3)c3ccc(Cl)cc23)cc1 [Example 10, 4-(3-{5-chloro-1-(diphenylmethyl)-2-[2-({[2-(trifluoromethyl)benzyl]sulfonyl}amino)ethyl]-1H-indol-3-yl}propyl)benzoic acid]",IC50,TXB2,20 nM
same,Paw edema,"carrageenan paw edema; 2 hours before carrageenan, doses as low as 3 mg/kg",statistically significantly decreased; also recorded: significantly inhibited edema
same,ED50,"carrageenan paw edema; based on a maximal inhibition of 50%, read-out: approximate ED50 of paw edema inhibition",~7.5 mg/kg
same,pain (paw pressure) compared to vehicle control,CFA-induced hyperalgesia; 25 mg/kg,statistically significant decrease; also recorded: effective
same,LTB4 levels in paw exudates,CFA-induced hyperalgesia,significantly inhibited
same,TXB2 levels in paw exudates,CFA-induced hyperalgesia,greater than the inhibition with celecoxib
same,PGE2 levels in paw exudates,CFA-induced hyperalgesia; Example 10 at 25 mg/kg,significantly inhibited
